Where a name gives a salt, the structure may show the parent alone.
Columns and labels:
[1] = system: 3T3 fibroblast cells; assay: Cytotoxicity cell counting assay in 3T3 fibroblasts; format: cell-based; conditions: 24 h; complex with 4 μg MH in 100 μl or 40 μg/mL fresh MH; vs untreated control
Protocol: After 24 h, cell viability was determined using a cell counting assay (Roche) according to the manufacturer's instruction, and cell morphology was imaged by staining the cells with cresyl violet (0.5 mg/mL) for 30 min after the cells were fixed. In vitro cytotoxicity of the polyelectrolyte MH/DS/metal ion complexes were studied by using 3T3 fibroblast cells. […] Cell morphology was examined after treatment with MH/DS/metal ion complexes (FIGS. 7C-7F).

[2] = systemic administration of 200 mg MH daily (3 mg/kg); human subjects; cited from earlier work
[3] = system: NIH 3T3 fibroblasts; assay: Fresh DOX dose- and time-dependent treatment; format: cell-based; conditions: nine-day treatment with 0.2 μg/mL DOX; vs untreated control
Source text: The medium was changed every 24 hr.

[4] = cited from earlier work
[5] = system: MDA-MB-231 cells; assay: Fresh DOX dose- and time-dependent treatment

With `CN(C)c1ccc(O)c2c1C[C@H]1C[C@H]3[C@H](N(C)C)C(O)=C(C(N)=O)C(=O)[C@@]3(O)C(O)=C1C2=O` [MH, Minocycline hydrochloride] as the molecule, how does the “3T3 fibroblast viability (cell counting assay)” value [1] read?
The value was “no significant difference”.

And the “MH in the cerebrospinal fluid (CSF)” value [2]?
The value was “about 0.5 μg/mL”.

With `COc1cccc2c1C(=O)c1c(O)c3c(c(O)c1C2=O)C[C@@](O)(C(=O)CO)C[C@@H]3O[C@H]1C[C@H](N)[C@H](O)[C@H](C)O1` [DOX, doxorubicin] as the molecule, how does the “cell viability of fibroblasts” value [3] read?
Its value is “did not significantly reduce the cell viability”.

What about the “time stock solution is stable” value ([4]; 4 degree) of the same molecule?
The value was 1 month.

And the DOX degraded ([4]; cell culture medium at 37° C., 4 days)?
Its DOX degraded is 30%-40%.

And the “time solution is stable” value ([4]; room temperature, Adriamycin instruction booklets)?
Its value is 7 days.

What about the “time in which all the cancer cells were completely killed” value ([5]; DOX 0.2 μg/mL) of the same molecule?
Its value is 8 days.

What about the “DOX concentration range that effectively kills cancer cells with minimal fibroblast cytotoxicity” value ([5]; for 5-9 days) of the same molecule?
Its value is 0.1 to 0.4 µg/mL.

From patent publication US10272098B2, “Chelated drug delivery systems” (Drexel University, priority 2013, dated 2019)
